# Measured values: patent US5780589A, “Ultraselective opioidmimetic peptides and pharmacological and therapeutic uses thereof” (The United States of America as represented by the …, priority 1994, dated 1998)
# Entries after “also recorded” stand apart in the source; their conditions may differ. Read-outs that look alike come from different tables or passages of the source. Non-standard residues stand in square brackets, D forms with d. Residues, ends and D or L forms follow the SMILES beside them. No end group written: not given here. Dmt = Cc1cc(O)cc(C)c1C[C@H](N)C(=O)O; Tic = O=C(O)[C@@H]1Cc2ccccc2CN1; dTic = O=C(O)[C@H]1Cc2ccccc2CN1
# Experiments:
# μ receptor [1] = biological target: T1, μ receptor (Rattus norvegicus, UniProt P33535); assay: μ receptor binding, rat membrane synaptosomes, [3H]DAGO; conditions: rat synaptosomes (P2), mean ± SEM
# T1 construct: Rat membrane synaptosome preparations (P2 fraction) were prepared as detailed previously; from tissue; host or cells: rat synaptosomal membranes (P2 fraction)
# T1 sequence (P33535 whole entry): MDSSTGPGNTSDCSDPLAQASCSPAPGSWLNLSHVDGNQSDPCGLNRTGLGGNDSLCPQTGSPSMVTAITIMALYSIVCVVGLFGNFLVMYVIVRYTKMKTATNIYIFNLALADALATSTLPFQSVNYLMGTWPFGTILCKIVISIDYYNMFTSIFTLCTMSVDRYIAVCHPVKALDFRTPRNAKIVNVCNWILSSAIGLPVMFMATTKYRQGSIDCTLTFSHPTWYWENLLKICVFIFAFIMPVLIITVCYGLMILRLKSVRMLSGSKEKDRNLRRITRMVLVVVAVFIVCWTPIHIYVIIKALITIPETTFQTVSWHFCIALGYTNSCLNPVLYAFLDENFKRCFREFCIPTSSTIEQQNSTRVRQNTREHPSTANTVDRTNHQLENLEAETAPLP
# Method: (§1) Rat membrane synaptosome preparations (P2 fraction) were prepared as detailed previously, which included a preincubation step to reduce the presence of endogenous ligands and binding of G proteins (33,40). […] Samples were rapidly filtered through wetted glass fiber filters and thoroughly washed with 6 mL (3×2 mL) ice-cold 50 mM Tris-HCl, pH 7.5, containing 0.01-0.1% chicken egg albumin or bovine serum albumin. […] The filters were dried at 70° C. and the radioactivity determined after an overnight incubation period in CytoScint to maximize the radioactivity detected and reduce variability between samples. The IC50 values were converted to affinity constants (Ki) according to Cheng and Prusoff (48).
# δ opioid receptor [2] = biological target: T2, δ opioid receptor (Rattus norvegicus, UniProt P33533); assay: δ receptor binding, rat membrane synaptosomes, [3H]DPDPE; conditions: for Ki: [3H]DPDPE, rat synaptosomes (P2), mean ± SEM; for μ/δ (receptor selectivity): ratio Ki μ / Ki δ; for selectivity change on D-Tic substitution: δ→μ
# T2 construct: Rat membrane synaptosome preparations (P2 fraction) were prepared as detailed previously; from tissue; host or cells: rat synaptosomal membranes (P2 fraction)
# T2 sequence (P33533 whole entry): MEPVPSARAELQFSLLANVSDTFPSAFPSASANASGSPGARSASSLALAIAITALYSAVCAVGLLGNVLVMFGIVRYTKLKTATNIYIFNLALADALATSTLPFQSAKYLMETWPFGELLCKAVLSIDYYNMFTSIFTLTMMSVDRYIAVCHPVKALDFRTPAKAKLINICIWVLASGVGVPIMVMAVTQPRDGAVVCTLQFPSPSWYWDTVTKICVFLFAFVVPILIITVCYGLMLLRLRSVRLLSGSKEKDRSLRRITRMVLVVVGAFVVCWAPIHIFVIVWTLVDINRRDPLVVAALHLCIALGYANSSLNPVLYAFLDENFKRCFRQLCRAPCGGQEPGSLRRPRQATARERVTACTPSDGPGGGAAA
# Method: as §1
# δ receptor = biological target: T3, δ receptor (Rattus norvegicus, UniProt P33533); assay: Multi-site (one- vs two-site) δ receptor binding analysis; conditions: for Ki: Prism fit; for δ receptor binding model fitted: one-site vs two-site; for Percent low-affinity sites: two-site δ receptor fit
# T3 construct: Rat membrane synaptosome preparations (P2 fraction) were prepared as detailed previously; from tissue; host or cells: rat synaptosomal membranes (P2 fraction)
# T3 sequence (P33533 whole entry): as above
# Method: as §1
# Multi-site binding analyses, based on stringent statistical methods, were performed as described in Bryant et al. (41) and Attila et al. (49). Receptor assays were conducted in triplicate with 25-35 graded concentrations of peptide; the resulting curves were both individually assessed and combined from several distinct assays, and analyzed using Prism™ (v. 1.02, GraphPad, San Diego, Calif.).
# δ receptors = δ receptors (Mus musculus, UniProt P32300); conditions: for antagonist properties in MVD bioassay: in vitro mouse vas deferens
# δ receptors, sequence (P32300 whole entry): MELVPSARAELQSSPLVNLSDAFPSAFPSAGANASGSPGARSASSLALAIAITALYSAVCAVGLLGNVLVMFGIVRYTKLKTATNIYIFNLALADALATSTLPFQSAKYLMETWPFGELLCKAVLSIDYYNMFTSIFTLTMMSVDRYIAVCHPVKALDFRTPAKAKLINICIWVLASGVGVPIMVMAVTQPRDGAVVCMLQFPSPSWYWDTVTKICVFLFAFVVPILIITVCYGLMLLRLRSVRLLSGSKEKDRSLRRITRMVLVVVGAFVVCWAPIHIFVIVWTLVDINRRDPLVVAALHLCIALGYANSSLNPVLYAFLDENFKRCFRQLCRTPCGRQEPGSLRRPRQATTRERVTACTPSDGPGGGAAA
# Method: (§2) The in vitro pharmacological assays were undertaken using published methods (32) based on the organ bath technique of Kosterlitz and Watt (50). For μ receptors, a 2-3 cm segment of guinea-pig ileum (GPI) mounted in a 20 mL organ bath and for δ receptors, a single mouse vas deferens (MVD) was obtained from a mature animal.
# μ receptors = μ receptors (Cavia porcellus, UniProt P97266); assay: Guinea-pig ileum (GPI) bioassay, electrically stimulated contractions
# μ receptors, sequence (P97266 whole entry, looked up): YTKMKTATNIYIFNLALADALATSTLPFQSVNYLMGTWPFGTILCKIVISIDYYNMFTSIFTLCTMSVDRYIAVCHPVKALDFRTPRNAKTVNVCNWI
# Method: as §2
# μ receptor [3] = biological target: T1, μ receptor; conditions: [3H]DAGO; data from Temussi et al. (39); cited from earlier work
# δ opioid receptor [4] = biological target: T2, δ opioid receptor; conditions: data from Temussi et al. (39), cited from earlier work; for Ki: [3H]DPDPE; for μ/δ (receptor selectivity): ratio Ki μ / Ki δ
# mice = assay: Tail flick test (TFT), analgesia and morphine antagonism in mice; format: in vivo, CD-1 mice
# Method: Animal procedures were conducted under protocols approved by the Animal Use and Care Committee, NIEHS, an AALAC accredited facility. Tail flick test (TFT) used a radiant heat source on the tail of Fisher 344 rats or CD-1 mice (52). The response was standardized by the subcutaneous (sc) injection of 5 mg morphine sulfate/kilogram (Kg) body weight or 0.1-0.25 mg morphine/Kg body weight by iv injection; peptides were injected in 100 μL volume in sterile saline. […] Intrathecal injection of peptides in mice used the method of Hylden and Wilcox (53). A base-line and cut-off 10 sec were determined in the TFT with naive and morphine-dosed animals, respectively,to prevent damage to the tail. 1 μg to 10 mg per kilogram of animal was used for iv, icv or sc; higher doses in the mg range were used for sc injection.
# [5] = high affinity δ site, read-out: Ki (nM) High
# [6] = low affinity δ site, read-out: Ki (nM) Low
# [7] = concentration equivalent of pA2, against deltorphin C
# [8] = guinea-pig ileum, read-out: GPI IC50
molecule,measurement,setting,value
"Cc1cc(O)cc(C)c1C[C@H](N)C(=O)N1Cc2ccccc2C[C@@H]1C(=O)N[C@@H](C)C(=O)O [Peptide 10, Dmt-D-Tic-Ala-OH] (H-[Dmt]-[dTic]-Ala-OH)",Ki,μ receptor [1],82.8 ± 2 nM
same,Ki,δ opioid receptor [2],88.7 ± 13.8 nM
same,μ/δ (receptor selectivity),δ opioid receptor [2],0.93
"Cc1cc(O)cc(C)c1C[C@H](N)C(=O)N1Cc2ccccc2C[C@H]1CO [Peptide 5, Dmt-Tic--CH2 OH]",Ki,μ receptor [1],151 ± 16.3 nM
same,Ki,δ receptor; [5],0.13 nM
same,Ki,δ receptor; [6],5.2 nM
same,δ receptor binding model fitted,δ receptor,two-site model
same,Percent low-affinity sites,δ receptor,20.9 ± 5.3%
same,Kb,δ receptors,100 nM
same,MVD,δ receptors; [7],6.6 nM
same,antagonist properties in MVD bioassay,δ receptors,antagonist properties
same,IC50,μ receptors,> 10 µM
same,Ki,δ opioid receptor [2],0.44 ± 0.14 nM
same,μ/δ (receptor selectivity),δ opioid receptor [2],344
"Cc1cc(O)cc(C)c1C[C@H](N)C(=O)N1Cc2ccccc2C[C@@H]1C(=O)N[C@@H](C)C(N)=O [Peptide 11, Dmt-D-Tic-Ala-NH2] (H-[Dmt]-[dTic]-Ala-NH2)",Ki,μ receptor [1],5.8 ± 0.85 nM
same,Ki,δ opioid receptor [2],46.4 ± 2.7 nM
same,μ/δ (receptor selectivity),δ opioid receptor [2],0.13
"Cc1cc(O)cc(C)c1C[C@@H]1NC(=O)[C@@H]2Cc3ccccc3CN2C1=O [Peptide 6, c(Dmt-Tic)]",Ki,μ receptor [1],635 ± 69.3 nM
same,Ki,δ receptor; [5],0.09 nM
same,Ki,δ receptor; [6],9.4 nM
same,δ receptor binding model fitted,δ receptor,two-site model
same,Percent low-affinity sites,δ receptor,86.8 ± 3.9%
same,Kb,δ receptors,3720 nM
same,MVD nM,δ receptors; [7],"3,800 nM"
same,antagonist properties in MVD bioassay,δ receptors,antagonist properties
same,IC50,μ receptors,20 ± 2 µM
same,μ/δ (receptor selectivity),δ opioid receptor [2],66
same,fold higher δ affinity relative to Tyr-Tic cognate,δ opioid receptor [2]; vs Tyr-Tic-OH (peptide 12) or c(Tyr-Tic) (peptide 17),"4,000 fold"
"N[C@@H](Cc1ccc(O)cc1)C(=O)N1Cc2ccccc2C[C@H]1CO [Peptide 16, Tyr-Tic-CH2 OH, reference compound]",Ki,μ receptor [1],11000 nM
same,Ki,δ opioid receptor [2],128 ± 34.7 nM
same,μ/δ (receptor selectivity),δ opioid receptor [2],86
"C[C@H](NC(=O)[C@H]1Cc2ccccc2CN1C(=O)[C@@H](N)Cc1ccc(O)cc1)C(=O)O [Peptide 21, Tyr-D-Tic-Ala-OH, reference compound] (H-Tyr-[dTic]-Ala-OH)",Ki,μ receptor [1],14000 nM
same,Ki,δ opioid receptor [2],2350 nM
same,μ/δ (receptor selectivity),δ opioid receptor [2],6
"Oc1ccc2c3c1O[C@H]1c4[nH]c5ccccc5c4C[C@@]4(O)[C@@H](C2)N(CC2CC2)CC[C@]314 [Naltrindole, naltrindole, reference compound]",MVD pA2,δ receptors; antagonism against deltorphin C as the agonist,9.2
same,MVD,δ receptors; [7],0.7 nM
same,GPI nM (with pA2),μ receptors; guinea-pig ileum,53 nM
same,GPI pA2,μ receptors; guinea-pig ileum,7.3
"Cc1cc(O)cc(C)c1C[C@H](N)C(=O)N1Cc2ccccc2C[C@H]1C(N)=O [Peptide 2, Dmt-Tic-NH2] (H-[Dmt]-[Tic]-NH2; N-terminus assumed)",Ki,δ receptor; [5],1.06 nM
same,δ receptor binding model fitted,δ receptor,one-site binding model
same,Percent low-affinity sites,δ receptor,6.2 ± 40.1%
same,Kb,δ receptors,63.1 nM
same,MVD,δ receptors; [7],4.2 nM
same,antagonist properties in MVD bioassay,δ receptors,antagonist properties
same,IC50,μ receptors,> 10 µM
same,Ki,δ opioid receptor [2],1.22 ± 0.09 nM
"C[C@H](NC(=O)[C@H]1Cc2ccccc2CN1C(=O)[C@@H](N)Cc1ccc(O)cc1)C(N)=O [Peptide 22, Tyr-D-Tic-Ala-NH2] (H-Tyr-[dTic]-Ala-NH2)",Ki,μ receptor [3],8150 nM
same,selectivity change on D-Tic substitution,δ opioid receptor [2],reversal of selectivity
same,Ki,δ opioid receptor [4],21100 nM
same,μ/δ (receptor selectivity),δ opioid receptor [4],0.39
"N[C@@H](Cc1ccc(O)cc1)C(=O)N1Cc2ccccc2C[C@H]1C(=O)O [Peptide 12, Tyr-Tic-OH, reference compound] (H-Tyr-[Tic]-OH)",μ/δ (receptor selectivity),δ opioid receptor [2],148
"Cc1cc(O)cc(C)c1C[C@@H]1NC(=O)[C@H]2Cc3ccccc3CN2C1=O [Peptide 7, c(Dmt-D-Tic)]",Ki,μ receptor [1],728 ± 72.9 nM
same,Ki,δ opioid receptor [2],499 ± 117 nM
same,μ/δ (receptor selectivity),δ opioid receptor [2],1.5
"O=C1N[C@@H](Cc2ccc(O)cc2)C(=O)N2Cc3ccccc3C[C@@H]12 [Peptide 17, c(Tyr-Tic), reference compound]",Ki,μ receptor [1],51500 nM
same,Ki,δ opioid receptor [2],41800 nM
same,μ/δ (receptor selectivity),δ opioid receptor [2],1.2
"N[C@@H](Cc1ccc(O)cc1)C(=O)N1Cc2ccccc2C[C@@H]1C(=O)O [Peptide 14, Tyr-D-Tic-OH, reference compound] (H-Tyr-[dTic]-OH)",Ki,μ receptor [1],26300 nM
same,Ki,δ opioid receptor [2],9050 nM
same,μ/δ (receptor selectivity),δ opioid receptor [2],2.9
"O=C1N[C@@H](Cc2ccc(O)cc2)C(=O)N2Cc3ccccc3C[C@H]12 [Peptide 18, c(Tyr-D-Tic), reference compound]",Ki,μ receptor [1],128000 nM
same,Ki,δ opioid receptor [2],8910 nM
same,μ/δ (receptor selectivity),δ opioid receptor [2],14
"Cc1cc(O)cc(C)c1C[C@H](N)C(=O)N1Cc2ccccc2C[C@@H]1C(=O)O [Peptide 3, Dmt-D-Tic-OH] (H-[Dmt]-[dTic]-OH; N-terminus assumed)",Ki,μ receptor [1],224 ± 25.6 nM
Tyr-[Tic]-Ala-OH [Peptide 19],Ki,μ receptor [3],8290 nM
same,Ki,δ opioid receptor [4],56.1 ± 10.3 nM
same,μ/δ (receptor selectivity),δ opioid receptor [4],148
"Cc1cc(O)cc(C)c1C[C@H](N)C(=O)N1Cc2ccccc2C[C@H]1C(=O)O [Peptide 1, Dmt-Tic-OH] (H-[Dmt]-[Tic]-OH; N-terminus assumed)",Ki,μ receptor [1],3320 nM
same,δ receptor binding model fitted,δ receptor,one-site binding model
same,Percent low-affinity sites,δ receptor,30.7 ± 91.5%
same,Kb,δ receptors,6.31 nM
same,MVD,δ receptors; [7],5.7 nM
same,antagonist properties in MVD bioassay,δ receptors,antagonist properties
same,analgesia in tail flick test,"mice; iv, 100 ug/mouse where stated",no demonstratable analgesia; also recorded: no demonstrable analgesia
same,block of the effect of morphine in tail flick test,"mice; morphine injected iv (0.25 mg/kg), peptide 100 ug/mouse iv",completely blocked
"NC(=O)[C@H]1Cc2ccccc2CN1C(=O)[C@@H](N)Cc1ccc(O)cc1 [Peptide 15, Tyr-D-Tic-NH2] (H-Tyr-[dTic]-NH2)",Ki,μ receptor [3],3130 nM
same,selectivity change on D-Tic substitution,δ opioid receptor [2],reversal of selectivity
same,Ki,δ opioid receptor [4],5960 nM
same,μ/δ (receptor selectivity),δ opioid receptor [4],0.53
"Cc1cc(O)cc(C)c1C[C@H](N)C(=O)N1Cc2ccccc2C[C@H]1C(=O)N[C@@H](C)C(N)=O [Peptide 9, Dmt-Tic-Ala-NH2] (H-[Dmt]-[Tic]-Ala-NH2)",Ki,δ receptor; [5],0.18 nM
same,Ki,δ receptor; [6],10.7 nM
same,IC50,μ receptors; [8],4.74 ± 0.9 µM
same,μ/δ (receptor selectivity),δ opioid receptor [2],195
"Cc1cc(O)cc(C)c1C[C@H](N)C(=O)N1Cc2ccccc2C[C@@H]1C(N)=O [Peptide 4, Dmt-D-Tic-NH2] (H-[Dmt]-[dTic]-NH2; N-terminus assumed)",Ki,δ opioid receptor [2],56.9 ± 2.9 nM
Tyr-[Tic]-Ala-NH2 [Peptide 20],Ki,μ receptor [3],33800 nM
same,Ki,δ opioid receptor [4],55.5 ± 13.7 nM
same,μ/δ (receptor selectivity),δ opioid receptor [4],610
"Cc1cc(O)cc(C)c1C[C@H](N)C(=O)N1Cc2ccccc2C[C@H]1C(=O)N[C@@H](C)C(=O)O [Peptide 8, Dmt-Tic-Ala-OH] (H-[Dmt]-[Tic]-Ala-OH)",Ki,μ receptor [1],5810 nM
same,Ki,δ receptor; [5],0.12 nM
same,Ki,δ receptor; [6],4.8 nM
same,Kb,δ receptors,3.98 nM
same,IC50,μ receptors; [8],> 10 µM
same,Ki,δ opioid receptor [2],0.285 ± 0.03 nM
same,μ/δ (receptor selectivity),δ opioid receptor [2],"20,396"
Tyr-Tic-NH2 [Peptide 13],Ki,μ receptor [3],28700 nM
same,Ki,δ opioid receptor [4],166 ± 48.1 nM
same,μ/δ (receptor selectivity),δ opioid receptor [4],173
